Reference: patent US9732077B2, “Diazepane orexin receptor antagonists” (MERCK SHARP & DOHME CORP., priority 2013, dated 2017)

Tests used:
[1] = target: T1, rat orexin-1 receptor (Rattus norvegicus, UniProt P56718); assay: OX1R FLIPR Ca flux assay (CHO cells); format: cell-based; conditions: CHO cells expressing rat orexin-1 receptor; agonist 70 pM Ala-6,12 orexin-A
T1 construct: expressed in transfected cells; host or cells: CHO cells (G418 selection)
T1 sequence (P56718 1-416): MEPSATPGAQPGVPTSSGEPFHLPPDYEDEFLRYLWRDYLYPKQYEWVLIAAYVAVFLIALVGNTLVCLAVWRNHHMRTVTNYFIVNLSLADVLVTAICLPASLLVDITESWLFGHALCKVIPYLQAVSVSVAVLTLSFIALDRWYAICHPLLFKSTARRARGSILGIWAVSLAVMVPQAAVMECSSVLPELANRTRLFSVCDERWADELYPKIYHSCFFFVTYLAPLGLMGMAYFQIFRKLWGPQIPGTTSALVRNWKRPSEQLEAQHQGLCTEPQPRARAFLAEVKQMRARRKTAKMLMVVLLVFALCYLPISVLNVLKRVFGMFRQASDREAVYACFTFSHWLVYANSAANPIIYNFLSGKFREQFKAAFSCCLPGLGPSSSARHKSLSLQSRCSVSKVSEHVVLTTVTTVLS
Protocol: (§1) The utility of the compounds in accordance with the present invention as orexin receptor OX1R and/or OX2R antagonists may be readily determined without undue experimentation by methodology well known in the art, including the “FLIPR Ca^+ Flux Assay” (Okumura et al., Biochem. Biophys. Res. Comm. 280:976-981, 2001). In a typical experiment the OX1 and OX2 receptor antagonistic activity of the compounds of the present invention was determined in accordance with the following experimental method. For intracellular calcium measurements, Chinese hamster ovary (CHO) cells expressing the rat orexin-1 receptor or the human orexin-2 receptor, are grown in Iscove's modified DMEM containing 2 mM L-glutamine, […], 1% hypoxanthine-thymidine supplement, 100 U/ml penicillin, 100 μg/ml streptomycin and 10% heat-inactivated fetal calf serum (FCS). The cells are seeded at 20,000 cells/well into Becton-Dickinson black 384-well clear bottom sterile plates coated with poly-D-lysine. All reagents were from GIBCO-Invitrogen Corp. The seeded plates are incubated overnight at 37° C. and 5% CO2. Ala-6,12 human orexin-A as the agonist is prepared as a 1 mM stock solution in 1% bovine serum albumin (BSA) and diluted in assay buffer (HBSS containing 20 mM HEPES, 0.1% BSA and 2.5 mM probenecid, pH7.4) for use in the assay at a final concentration of 70 pM. Test compounds are prepared as 10 mM stock solution in DMSO, then diluted in 384-well plates, first in DMSO, then assay buffer. On the day of the assay, cells are washed 3 times with 100 μl assay buffer and then incubated for 60 min (37° C., 5% CO2) in 60 μl assay buffer containing 1 μM Fluo-4AM ester, 0.02% pluronic acid, and 1% BSA. The dye loading solution is then aspirated and cells are washed 3 times with 100 μl assay buffer. 30 μl of that same buffer is left in each well. Within the Fluorescent Imaging Plate Reader (FLIPR, Molecular Devices), test compounds are added to the plate in a volume of 25 μl, incubated for 5 min and finally 25 μl of agonist is added. Fluorescence is measured for each well at 1 second intervals for 5 minutes and the height of each fluorescence peak is compared to the height of the fluorescence peak induced by 70 pM Ala-6,12 orexin-A with buffer in place of antagonist. For each antagonist, IC50 value (the concentration of compound needed to inhibit 50% of the agonist response) is determined. Alternatively, compound potency can be assessed by a radioligand binding assay (described in Bergman et. al. Bioorg. Med. Chem. Lett. 2008, 18, 1425-1430) in which the inhibition constant (Ki) is determined in membranes prepared from CHO cells expressing either the OX1 or OX2 receptor. The intrinsic orexin receptor antagonist activity of a compound which may be used in the present invention may be determined by these assays.

[2] = target: T2, human orexin-2 receptor (Homo sapiens, UniProt O43614); assay: OX2R FLIPR Ca flux assay (CHO cells); format: cell-based; conditions: for IC50: CHO cells expressing human orexin-2 receptor, agonist 70 pM Ala-6,12 orexin-A; for Fold Selectivity OX2R vs. OX1R: ratio of OX1R FLIPR to OX2R FLIPR
T2 construct: expressed in transfected cells; host or cells: CHO cells (G418 selection)
T2 sequence (O43614 1-444): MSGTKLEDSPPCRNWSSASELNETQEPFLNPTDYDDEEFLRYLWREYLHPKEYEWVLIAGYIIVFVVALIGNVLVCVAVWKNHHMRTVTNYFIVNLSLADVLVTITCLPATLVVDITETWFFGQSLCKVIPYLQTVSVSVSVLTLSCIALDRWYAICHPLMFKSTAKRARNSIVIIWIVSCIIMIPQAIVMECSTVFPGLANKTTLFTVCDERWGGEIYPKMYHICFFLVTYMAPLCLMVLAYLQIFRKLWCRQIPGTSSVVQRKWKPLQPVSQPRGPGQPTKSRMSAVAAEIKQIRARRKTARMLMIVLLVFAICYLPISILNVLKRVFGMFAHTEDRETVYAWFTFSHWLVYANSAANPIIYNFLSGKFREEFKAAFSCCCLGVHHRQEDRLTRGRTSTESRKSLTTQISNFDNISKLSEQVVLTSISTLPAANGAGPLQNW
Protocol: as §1

Structure (SMILES)	IC50 [1]	IC50 [2]	Fold Selectivity OX2R vs. OX1R [2]
Cc1oc(N2CCCN(C(=O)c3ccccc3-n3cccn3)CC2)nc1C(C)(C)O [Example 20, 2-[5-methyl-2-(4-{[2-(1H-pyrazol-1-yl)phenyl]carbonyl}-1,4-diazepan-1-yl)-1,3-oxazol-4-yl]propan-2-ol]	6290 nM	35 nM	179 fold
CCOc1ncccc1C(=O)N1CCCN(c2nc(C(C)(C)O)c(C)o2)CC1 [Example 21, 2-(2-{4-[(2-ethoxypyridin-3-yl)carbonyl]-1,4-diazepan-1-yl}-5-methyl-1,3-oxazol-4-yl)propan-2-ol]	7890 nM	34 nM	231 fold
CC(C)(O)c1csc(N2CCCN(C(=O)c3cccnc3OCC(F)F)CC2)n1 [Example 22, (2-(2,2-difluoroethoxy)pyridin-3-yl)(4-(4-(2-hydroxypropan-2-yl)thiazol-2-yl)-1,4-diazepan-1-yl)methanone]	> 10000 nM	90 nM	>111 fold
CC(C)(O)c1csc(N2CCCN(C(=O)c3cccnc3OCC(F)(F)F)CC2)n1 [Example 23, (4-(4-(2-hydroxypropan-2-yl)thiazol-2-yl)-1,4-diazepan-1-yl)(2-(2,2,2-trifluoroethoxy)pyridin-3-yl)methanone]	> 10000 nM	57 nM	>175 fold
CC(C)(O)c1csc(N2CCCN(C(=O)c3ccccc3OC(F)(F)F)CC2)n1 [Example 24, (4-(4-(2-hydroxypropan-2-yl)thiazol-2-yl)-1,4-diazepan-1-yl)(2-(trifluoromethoxy)phenyl)meth-anone]	> 10000 nM	216 nM	>46 fold
CC(C)(O)c1csc(N2CCCN(C(=O)c3ccccc3C3CC3)CC2)n1 [Example 25, (2-cyclopropylphenyl)(4-(4-(2-hydroxypropan-2-yl)thiazol-2-yl)-1,4-diazepan-1-yl)methanone]	> 10000 nM	108 nM	>92 fold
CC(C)(O)c1csc(N2CCCN(C(=O)c3ccc(F)cc3-n3nccn3)CC2)n1 [Example 26, (4-fluoro-2-(2H-1,2,3-triazol-2-yl)phenyl)(4-(4-(2-hydroxypropan-2-yl)thiazol-2-yl)-1,4-diazepan-1-yl)methanone]	> 10000 nM	136 nM	>73 fold
